ChEMBL document CHEMBL3991601, “The target landscape of clinical kinase drugs” (Science, 2017)
Calls of active or inactive are those of the source. Rule as the data show it, for most assays here: actives have a measured Kd and inactives only a lower limit.

Columns and labels:
Insulin receptor = Insulin receptor (Homo sapiens, UniProt P06213)
[1] = target: Tyrosine-protein kinase Lck (Homo sapiens, UniProt P06239)
[2] = target: Cyclin-dependent kinase 7 (Homo sapiens, UniProt P50613)
[3] = target: T1, Ras-related protein Rab-27A (Homo sapiens, UniProt P51159)
T1 sequence (P51159 whole entry): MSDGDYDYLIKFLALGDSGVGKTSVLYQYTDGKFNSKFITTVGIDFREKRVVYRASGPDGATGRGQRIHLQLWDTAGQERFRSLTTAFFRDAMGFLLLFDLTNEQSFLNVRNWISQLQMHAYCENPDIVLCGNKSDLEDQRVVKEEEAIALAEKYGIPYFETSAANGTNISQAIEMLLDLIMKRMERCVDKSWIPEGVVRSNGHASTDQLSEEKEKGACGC

[4] = target: T2, NUAK family SNF1-like kinase 2 (Homo sapiens, UniProt Q9H093)
T2 sequence (Q9H093 whole entry): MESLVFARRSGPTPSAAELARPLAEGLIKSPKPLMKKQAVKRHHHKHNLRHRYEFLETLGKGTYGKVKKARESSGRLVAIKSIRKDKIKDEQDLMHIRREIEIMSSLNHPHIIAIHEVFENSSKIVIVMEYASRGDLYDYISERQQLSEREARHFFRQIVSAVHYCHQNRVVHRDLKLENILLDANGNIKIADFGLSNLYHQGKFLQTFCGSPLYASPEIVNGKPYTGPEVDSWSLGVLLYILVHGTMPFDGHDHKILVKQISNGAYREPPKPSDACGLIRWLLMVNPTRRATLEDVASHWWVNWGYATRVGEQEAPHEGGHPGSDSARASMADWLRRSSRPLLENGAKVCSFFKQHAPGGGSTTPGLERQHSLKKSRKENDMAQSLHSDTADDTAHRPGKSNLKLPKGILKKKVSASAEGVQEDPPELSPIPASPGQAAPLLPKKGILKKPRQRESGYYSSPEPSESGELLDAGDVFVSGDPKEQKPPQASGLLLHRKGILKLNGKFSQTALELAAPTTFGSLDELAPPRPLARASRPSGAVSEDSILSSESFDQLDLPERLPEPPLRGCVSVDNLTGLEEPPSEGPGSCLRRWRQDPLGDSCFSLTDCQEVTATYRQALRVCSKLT

[5] = target: T3, Calcium/calmodulin-dependent protein kinase type IV (Homo sapiens, UniProt Q16566)
T3 sequence (Q16566 whole entry): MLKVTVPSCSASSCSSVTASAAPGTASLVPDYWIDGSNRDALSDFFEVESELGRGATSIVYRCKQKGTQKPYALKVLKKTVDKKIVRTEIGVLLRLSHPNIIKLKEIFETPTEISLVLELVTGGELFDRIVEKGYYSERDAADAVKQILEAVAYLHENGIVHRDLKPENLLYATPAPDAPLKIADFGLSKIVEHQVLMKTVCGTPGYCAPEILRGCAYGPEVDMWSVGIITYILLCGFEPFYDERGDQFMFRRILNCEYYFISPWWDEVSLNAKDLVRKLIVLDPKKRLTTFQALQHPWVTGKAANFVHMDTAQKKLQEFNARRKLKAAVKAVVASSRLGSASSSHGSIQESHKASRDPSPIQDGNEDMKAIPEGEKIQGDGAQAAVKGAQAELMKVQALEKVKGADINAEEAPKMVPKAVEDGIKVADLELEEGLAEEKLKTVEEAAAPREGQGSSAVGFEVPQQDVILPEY

[6] = target: T4, Peroxisomal acyl-coenzyme A oxidase 1 (Homo sapiens, UniProt Q15067)
T4 sequence (Q15067 whole entry): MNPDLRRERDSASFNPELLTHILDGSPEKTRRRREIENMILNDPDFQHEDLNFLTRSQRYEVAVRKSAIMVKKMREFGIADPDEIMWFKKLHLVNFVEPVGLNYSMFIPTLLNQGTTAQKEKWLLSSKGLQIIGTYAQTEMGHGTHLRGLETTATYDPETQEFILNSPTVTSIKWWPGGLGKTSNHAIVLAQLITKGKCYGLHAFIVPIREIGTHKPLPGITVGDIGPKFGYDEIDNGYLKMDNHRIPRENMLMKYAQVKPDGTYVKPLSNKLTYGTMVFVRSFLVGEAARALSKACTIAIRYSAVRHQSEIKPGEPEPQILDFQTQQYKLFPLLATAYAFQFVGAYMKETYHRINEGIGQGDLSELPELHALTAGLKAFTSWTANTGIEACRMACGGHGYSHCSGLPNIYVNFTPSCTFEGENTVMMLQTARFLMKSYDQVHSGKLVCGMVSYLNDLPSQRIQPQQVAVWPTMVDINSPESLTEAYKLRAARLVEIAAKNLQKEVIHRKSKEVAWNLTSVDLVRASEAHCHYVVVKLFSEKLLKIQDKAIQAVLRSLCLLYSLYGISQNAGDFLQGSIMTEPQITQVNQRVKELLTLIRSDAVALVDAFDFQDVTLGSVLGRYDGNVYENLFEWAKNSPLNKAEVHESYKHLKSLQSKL

[7] = target: Ribosomal protein S6 kinase alpha-3 (Homo sapiens, UniProt P51812)
[8] = target: T5, Uncharacterized protein FLJ45252 (Homo sapiens, UniProt Q6ZSR9); conditions: read-out: Kd apparent; k-562, colo 205, sk-n-be(2) and mv-4-11
T5 sequence (Q6ZSR9 whole entry): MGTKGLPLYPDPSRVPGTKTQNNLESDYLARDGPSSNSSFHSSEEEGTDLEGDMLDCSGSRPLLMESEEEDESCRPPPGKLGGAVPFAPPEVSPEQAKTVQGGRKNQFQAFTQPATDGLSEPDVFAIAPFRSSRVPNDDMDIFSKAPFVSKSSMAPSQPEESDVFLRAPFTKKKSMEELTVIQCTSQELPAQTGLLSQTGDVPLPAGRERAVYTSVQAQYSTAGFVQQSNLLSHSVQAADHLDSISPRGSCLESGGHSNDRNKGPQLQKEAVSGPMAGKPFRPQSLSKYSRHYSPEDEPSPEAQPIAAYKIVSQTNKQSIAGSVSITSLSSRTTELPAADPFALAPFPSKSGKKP
Also: in the data inactive means no Kd found up to 30 µM.

Sequence of Cyclin-dependent kinase 7 (P50613 whole entry): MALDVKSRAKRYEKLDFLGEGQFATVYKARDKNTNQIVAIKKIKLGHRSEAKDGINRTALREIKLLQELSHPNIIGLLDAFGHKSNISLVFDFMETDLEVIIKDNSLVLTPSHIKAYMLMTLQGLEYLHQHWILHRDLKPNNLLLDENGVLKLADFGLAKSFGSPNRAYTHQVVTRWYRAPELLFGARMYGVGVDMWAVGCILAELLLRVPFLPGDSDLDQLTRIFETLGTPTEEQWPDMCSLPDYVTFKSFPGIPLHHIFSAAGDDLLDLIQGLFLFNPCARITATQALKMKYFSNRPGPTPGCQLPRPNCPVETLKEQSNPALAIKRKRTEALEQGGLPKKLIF
Sequence of Tyrosine-protein kinase Lck (P06239 whole entry): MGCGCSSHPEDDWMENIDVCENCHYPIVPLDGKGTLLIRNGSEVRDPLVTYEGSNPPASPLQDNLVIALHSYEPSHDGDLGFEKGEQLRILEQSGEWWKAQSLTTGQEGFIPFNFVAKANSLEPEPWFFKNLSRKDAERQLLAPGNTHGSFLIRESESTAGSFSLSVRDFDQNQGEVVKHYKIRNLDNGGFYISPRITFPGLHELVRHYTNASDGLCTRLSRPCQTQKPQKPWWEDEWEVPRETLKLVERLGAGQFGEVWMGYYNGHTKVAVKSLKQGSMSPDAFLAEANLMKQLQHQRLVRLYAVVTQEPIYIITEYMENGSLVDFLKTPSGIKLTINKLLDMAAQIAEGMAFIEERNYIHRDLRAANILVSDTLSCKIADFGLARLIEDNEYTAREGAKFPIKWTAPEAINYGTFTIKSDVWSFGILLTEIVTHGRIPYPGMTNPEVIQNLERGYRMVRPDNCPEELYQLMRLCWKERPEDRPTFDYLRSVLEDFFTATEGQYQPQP
Sequence of Ribosomal protein S6 kinase alpha-3 (P51812 whole entry): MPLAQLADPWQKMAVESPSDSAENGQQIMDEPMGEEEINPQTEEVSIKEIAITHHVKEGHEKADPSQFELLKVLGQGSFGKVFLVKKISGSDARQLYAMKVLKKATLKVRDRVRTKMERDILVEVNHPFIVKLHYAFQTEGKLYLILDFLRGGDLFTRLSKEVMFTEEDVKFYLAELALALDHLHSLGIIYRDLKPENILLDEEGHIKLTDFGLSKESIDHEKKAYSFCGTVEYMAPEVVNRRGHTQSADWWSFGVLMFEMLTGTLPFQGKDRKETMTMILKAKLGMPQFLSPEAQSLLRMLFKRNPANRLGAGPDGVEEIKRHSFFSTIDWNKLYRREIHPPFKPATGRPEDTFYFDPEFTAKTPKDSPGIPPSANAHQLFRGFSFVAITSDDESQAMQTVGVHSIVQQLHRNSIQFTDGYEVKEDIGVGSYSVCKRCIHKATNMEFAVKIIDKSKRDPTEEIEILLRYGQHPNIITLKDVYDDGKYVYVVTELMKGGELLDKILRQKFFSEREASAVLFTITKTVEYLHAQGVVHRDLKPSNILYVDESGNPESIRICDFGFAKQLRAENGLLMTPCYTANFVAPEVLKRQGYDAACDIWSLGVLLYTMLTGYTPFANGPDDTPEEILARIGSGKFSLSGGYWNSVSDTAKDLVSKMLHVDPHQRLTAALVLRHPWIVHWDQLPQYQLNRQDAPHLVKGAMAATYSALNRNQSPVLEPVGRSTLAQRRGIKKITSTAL
Sequence of Insulin receptor (P06213 28-758 limits assumed): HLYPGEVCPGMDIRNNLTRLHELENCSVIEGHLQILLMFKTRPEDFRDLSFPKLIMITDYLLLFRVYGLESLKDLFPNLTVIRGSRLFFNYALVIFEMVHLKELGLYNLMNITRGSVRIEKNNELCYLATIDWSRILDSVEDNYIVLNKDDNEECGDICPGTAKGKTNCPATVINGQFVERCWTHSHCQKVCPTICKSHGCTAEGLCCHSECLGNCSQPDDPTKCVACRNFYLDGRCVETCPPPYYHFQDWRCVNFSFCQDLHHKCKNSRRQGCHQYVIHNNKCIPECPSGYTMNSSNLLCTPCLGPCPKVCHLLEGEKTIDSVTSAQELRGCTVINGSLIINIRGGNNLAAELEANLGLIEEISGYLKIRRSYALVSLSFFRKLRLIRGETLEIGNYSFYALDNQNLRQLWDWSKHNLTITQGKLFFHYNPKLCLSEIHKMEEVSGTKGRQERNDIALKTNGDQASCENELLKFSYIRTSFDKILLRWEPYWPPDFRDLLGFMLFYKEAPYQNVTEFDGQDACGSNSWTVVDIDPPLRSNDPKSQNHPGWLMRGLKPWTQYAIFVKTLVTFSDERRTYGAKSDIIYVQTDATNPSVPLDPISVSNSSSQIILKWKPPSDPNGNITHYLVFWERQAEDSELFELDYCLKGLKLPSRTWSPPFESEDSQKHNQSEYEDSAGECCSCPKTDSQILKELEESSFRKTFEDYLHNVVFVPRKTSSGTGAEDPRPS
Sequence of Insulin receptor (P06213 763-1382 limits assumed): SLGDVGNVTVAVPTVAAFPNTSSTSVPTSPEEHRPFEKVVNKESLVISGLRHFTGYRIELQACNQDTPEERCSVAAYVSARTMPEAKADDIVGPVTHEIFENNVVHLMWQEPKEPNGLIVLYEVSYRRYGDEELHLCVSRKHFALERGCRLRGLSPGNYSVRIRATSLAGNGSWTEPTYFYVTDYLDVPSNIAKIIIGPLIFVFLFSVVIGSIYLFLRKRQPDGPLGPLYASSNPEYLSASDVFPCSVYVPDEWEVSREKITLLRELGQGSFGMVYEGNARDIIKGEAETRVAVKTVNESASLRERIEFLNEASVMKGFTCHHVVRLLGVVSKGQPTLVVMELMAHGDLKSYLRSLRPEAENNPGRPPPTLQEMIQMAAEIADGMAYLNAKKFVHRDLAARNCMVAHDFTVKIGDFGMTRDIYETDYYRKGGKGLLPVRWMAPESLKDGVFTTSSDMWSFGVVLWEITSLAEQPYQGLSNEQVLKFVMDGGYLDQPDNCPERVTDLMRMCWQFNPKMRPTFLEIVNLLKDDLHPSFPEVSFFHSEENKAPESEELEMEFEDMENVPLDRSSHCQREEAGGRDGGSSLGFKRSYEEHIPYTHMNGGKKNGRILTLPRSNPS

SMILES	Kd (Insulin receptor)	Kd [1]	Kd [2]	Kd [3]	Kd [4]	Kd [5]	Kd [6]	Kd [7]	Kd [8]
C[C@@H](Oc1cc(C(=O)Nc2ccc(C(=O)N3CCN(C)CC3)cc2)nnc1N)c1c(Cl)ccc(F)c1Cl	> 30 µM (inactive)	> 30 µM (inactive)	> 30 µM (inactive)	> 30 µM (inactive)	> 30 µM (inactive)	> 30 µM (inactive)	> 30 µM (inactive)	> 30 µM (inactive)	3.36 µM (active)
C[C@H]1CNCCCN1S(=O)(=O)c1cccc2cncc(F)c12	> 30 µM (inactive)	> 30 µM (inactive)	> 30 µM (inactive)	> 30 µM (inactive)	> 30 µM (inactive)	> 30 µM (inactive)	> 30 µM (inactive)	> 30 µM (inactive)	> 30 µM (inactive)
CCNC(=O)C#Cc1ccc2c(c1)NC(=O)/C2=C(\Nc1ccc(CN(C)C)cc1)c1ccccc1	> 30 µM (inactive)	0.115 µM (active)	> 30 µM (inactive)	> 30 µM (inactive)	–	> 30 µM (inactive)	> 30 µM (inactive)	0.734 µM (active)	> 30 µM (inactive)
COc1cc(Nc2ncc3c(n2)-c2ccc(Cl)cc2C(c2c(F)cccc2OC)=NC3)ccc1C(=O)O [ALISERTIB]	–	> 30 µM (inactive)	–	> 30 µM (inactive)	> 30 µM (inactive)	> 30 µM (inactive)	> 30 µM (inactive)	–	> 30 µM (inactive)
CNC(=O)c1ccccc1Sc1ccc2c(/C=C/c3ccccn3)n[nH]c2c1 [AXITINIB]	–	–	–	> 30 µM (inactive)	–	–	> 30 µM (inactive)	–	2.3 µM (active)
COc1cc([C@@H]2c3cc4c(cc3[C@H](O)[C@H]3COC(=O)[C@@H]23)OCO4)cc(OC)c1OC [AXL-1717]	> 30 µM (inactive)	> 30 µM (inactive)	> 30 µM (inactive)	> 30 µM (inactive)	> 30 µM (inactive)	> 30 µM (inactive)	> 30 µM (inactive)	> 30 µM (inactive)	> 30 µM (inactive)
Cn1cc(C2=C(c3cn(C4CCN(Cc5ccccn5)CC4)c4ccccc34)C(=O)NC2=O)c2ccccc21 [ENZASTAURIN]	–	–	–	> 30 µM (inactive)	–	–	–	–	> 30 µM (inactive)
C[C@@H](Oc1cc(-n2cnc3ccc(CN4CCN(C)CC4)cc32)sc1C(N)=O)c1ccccc1C(F)(F)F [GSK-461364]	–	–	–	> 30 µM (inactive)	–	–	> 30 µM (inactive)	–	> 30 µM (inactive)
CN(C[C@@H]1COCCO1)S(=O)(=O)Nc1ccc2ccc3ncc(-c4cnn(C)c4)cc3c(=O)c2c1 [MK-2461]	> 30 µM (inactive)	> 30 µM (inactive)	> 30 µM (inactive)	> 30 µM (inactive)	> 30 µM (inactive)	> 30 µM (inactive)	> 30 µM (inactive)	> 30 µM (inactive)	2.59 µM (active)
Cc1[nH]c(/C=C2\C(=O)Nc3ccccc32)c(C)c1CCC(=O)O [ORANTINIB]	–	–	–	> 30 µM (inactive)	–	> 30 µM (inactive)	> 30 µM (inactive)	–	1.18 µM (active)
NC(=O)c1c(OCc2c(F)cc(Br)cc2F)nsc1NC(=O)NCCCCN1CCCC1 [OSI-632]	–	–	–	> 30 µM (inactive)	> 30 µM (inactive)	> 30 µM (inactive)	> 30 µM (inactive)	–	> 30 µM (inactive)
CCCCCCCCCCCCCCCCCCOP(=O)([O-])OC1CC[N+](C)(C)CC1 [PERIFOSINE]	> 30 µM (inactive)	> 30 µM (inactive)	> 30 µM (inactive)	> 30 µM (inactive)	> 30 µM (inactive)	> 30 µM (inactive)	> 30 µM (inactive)	> 30 µM (inactive)	> 30 µM (inactive)
CC(=O)NCC(=O)N1[C@@H]2CC[C@H]1c1ccc(Nc3ncc(C(F)(F)F)c(NC4CCC4)n3)cc12 [PF-03814735]	–	–	–	> 30 µM (inactive)	0.024 µM (active)	> 30 µM (inactive)	> 30 µM (inactive)	–	0.01 µM (active)
CNC(=O)c1cc(Oc2ccc(NC(=O)Nc3cc(C(C)(C)C)nn3-c3ccc4ncccc4c3)c(F)c2)ccn1 [REBASTINIB]	> 30 µM (inactive)	–	> 30 µM (inactive)	> 30 µM (inactive)	> 30 µM (inactive)	> 30 µM (inactive)	> 30 µM (inactive)	> 30 µM (inactive)	> 30 µM (inactive)
O=C(NOCCO)c1cc(CN2OCCCC2=O)c(F)c(F)c1Nc1ccc(I)cc1F [RO-4987655]	–	–	–	> 30 µM (inactive)	–	–	–	–	> 30 µM (inactive)
N#CC[C@H](C1CCCC1)n1cc(-c2ncnc3[nH]ccc23)cn1 [RUXOLITINIB]	–	–	–	> 30 µM (inactive)	–	–	> 30 µM (inactive)	–	0.196 µM (active)
CCS(=O)(=O)c1cccc(-c2cc(C(=O)NC3CCN(C)CC3)c(C)c3[nH]c4ncc(C)cc4c23)c1 [TAK-901]	> 30 µM (inactive)	0.105 µM (active)	0.205 µM (active)	> 30 µM (inactive)	0.705 µM (active)	> 30 µM (inactive)	> 30 µM (inactive)	6 µM (active)	–
COc1cc2c(Nc3ccc(Cl)c(Cl)c3F)ncnc2cc1OC[C@@H]1C[C@@H]2CN(C)C[C@@H]2C1 [TESEVATINIB]	> 30 µM (inactive)	0.207 µM (active)	> 30 µM (inactive)	> 30 µM (inactive)	> 30 µM (inactive)	> 30 µM (inactive)	> 30 µM (inactive)	> 30 µM (inactive)	> 30 µM (inactive)
Cc1cc(Nc2ncnc3ccc(NC4=NC(C)(C)CO4)cc23)ccc1Oc1ccn2ncnc2c1 [TUCATINIB]	> 30 µM (inactive)	> 30 µM (inactive)	> 30 µM (inactive)	> 30 µM (inactive)	> 30 µM (inactive)	> 30 µM (inactive)	–	> 30 µM (inactive)	> 30 µM (inactive)
C[C@@H](N)c1ccc(C(=O)Nc2ccnc3[nH]ccc23)cc1 [Y-39983]	> 30 µM (inactive)	> 30 µM (inactive)	> 30 µM (inactive)	> 30 µM (inactive)	> 30 µM (inactive)	> 30 µM (inactive)	> 30 µM (inactive)	> 30 µM (inactive)	0.106 µM (active)
